# In the supplement of paper PMC9663587:
# Experiments:
# [1] = compound: CCN1CCN(Cc2ccc(Nc3ncc(F)c(-c4cc(F)c5nc(C)n(C(C)C)c5c4)n3)nc2)CC1; assay: increase in dead-cell fraction, 72 h; higher = more death;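 note: breast cancer cell lines in 384-well plates, stained with Hoechst plus LIVE/DEAD far red dye and imaged, cells above an LDR intensity threshold counted dead, Hoechst-negative corpses included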
# Flavopiridol [2] = compound: T1, CN1CC[C@H](c2c(O)cc(O)c3c(=O)cc(-c4ccccc4Cl)oc23)[C@H](O)C1 [Flavopiridol]; assay: as above
# LEE011/Ribociclib = compound: CN(C)C(=O)c1cc2cnc(Nc3ccc(N4CCNCC4)cn3)nc2n1C1CCCC1 [LEE011/Ribociclib]; assay: as above
# [3] = compound: CCc1cnn2c(NCc3ccc[n+]([O-])c3)cc(N3CCCC[C@H]3CCO)nc12; assay: as above
# BSJ-03-123 = compound: CC(=O)c1c(C)c2cnc(Nc3ccc(N4CCN(CCOCCOCCOCCNC(=O)COc5cccc6c5C(=O)N(C5CCC(=O)NC5=O)C6=O)CC4)cn3)nc2n(C2CCCC2)c1=O [BSJ-03-123]; assay: as above
# Neratinib/HKI272 = compound: CCOc1cc2ncc(C#N)c(Nc3ccc(OCc4ccccn4)c(Cl)c3)c2cc1NC(=O)/C=C/CN(C)C [Neratinib/HKI272]; assay: as above
# THZ1 [4] = compound: T2, CN(C)C/C=C/C(=O)Nc1ccc(C(=O)Nc2cccc(Nc3ncc(Cl)c(-c4c[nH]c5ccccc45)n3)c2)cc1 [THZ1]; assay: as above
# [5] = compound: CC(=O)c1c(C)c2cnc(Nc3ccc(N4CCNCC4)cn3)nc2n(C2CCCC2)c1=O; assay: as above
# Flavopiridol [6] = compound: T1, Flavopiridol; assay: GR value, 72 h; higher = faster growth (1 = untreated, <0 = killing);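 note: breast cancer and non-malignant breast epithelial lines, nine half-log doses, viable cells counted by Hoechst and LIVE/DEAD dye imaging versus time-zero plates and DMSO controls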
# THZ1 [7] = compound: T2, THZ1; assay: as above
# [8] = compound: CC(=O)c1c(C)c2cnc(Nc3ccc(N4CCNCC4)cn3)nc2n(C2CCCC2)c1=O; assay: as above
# THZ531 = compound: CN(C)C/C=C/C(=O)Nc1ccc(C(=O)N2CCC[C@@H](Nc3ncc(Cl)c(-c4c[nH]c5ccccc45)n3)C2)cc1 [THZ531]; assay: as above
cell line,measurement,setting,value
SUM229PE,increase in dead-cell fraction,[1]; 0.001 µM,-0.0006
same,increase in dead-cell fraction,[1]; 0.003162 µM,0.004
same,increase in dead-cell fraction,[1]; 0.01 µM,-0.0023
same,increase in dead-cell fraction,[1]; 0.03162 µM,-0.0024
same,increase in dead-cell fraction,[1]; 0.1 µM,0.0008
same,increase in dead-cell fraction,[1]; 0.3162 µM,-0.006
same,increase in dead-cell fraction,[1]; 1 µM,0.0054
same,increase in dead-cell fraction,[1]; 3.162 µM,0.0064
same,increase in dead-cell fraction,[1]; 10 µM,0.0095
same,increase in dead-cell fraction,Flavopiridol [2]; 0.0001 µM,-0.0011
same,increase in dead-cell fraction,Flavopiridol [2]; 0.0003162 µM,-0.0025
same,increase in dead-cell fraction,Flavopiridol [2]; 0.001 µM,0.0061
same,increase in dead-cell fraction,Flavopiridol [2]; 0.003162 µM,0.0065
same,increase in dead-cell fraction,Flavopiridol [2]; 0.01 µM,-0.0032
same,increase in dead-cell fraction,Flavopiridol [2]; 0.03162 µM,-0.003
same,increase in dead-cell fraction,Flavopiridol [2]; 0.1 µM,0.0189
same,increase in dead-cell fraction,Flavopiridol [2]; 0.3162 µM,0.0897
same,increase in dead-cell fraction,Flavopiridol [2]; 1 µM,0.0752
same,increase in dead-cell fraction,LEE011/Ribociclib; 0.001 µM,0.0025
same,increase in dead-cell fraction,LEE011/Ribociclib; 0.003162 µM,-0.003
same,increase in dead-cell fraction,LEE011/Ribociclib; 0.01 µM,0.0012
same,increase in dead-cell fraction,LEE011/Ribociclib; 0.03162 µM,0.0068
same,increase in dead-cell fraction,LEE011/Ribociclib; 0.1 µM,0.0061
same,increase in dead-cell fraction,LEE011/Ribociclib; 0.3162 µM,0.0005
same,increase in dead-cell fraction,LEE011/Ribociclib; 1 µM,0.0021
same,increase in dead-cell fraction,LEE011/Ribociclib; 3.162 µM,0.0223
same,increase in dead-cell fraction,LEE011/Ribociclib; 10 µM,0.0109
same,increase in dead-cell fraction,[3]; 0.0001 µM,-0.0001
same,increase in dead-cell fraction,[3]; 0.0003162 µM,-0.0086
same,increase in dead-cell fraction,[3]; 0.001 µM,0.0057
same,increase in dead-cell fraction,[3]; 0.003162 µM,-0.0015
same,increase in dead-cell fraction,[3]; 0.01 µM,0.0106
same,increase in dead-cell fraction,[3]; 0.03162 µM,0.0583
same,increase in dead-cell fraction,[3]; 0.1 µM,0.0925
same,increase in dead-cell fraction,[3]; 0.3162 µM,0.0682
same,increase in dead-cell fraction,[3]; 1 µM,0.0926
same,increase in dead-cell fraction,BSJ-03-123; 0.001 µM,0.0053
same,increase in dead-cell fraction,BSJ-03-123; 0.003162 µM,0.0041
same,increase in dead-cell fraction,BSJ-03-123; 0.01 µM,-0.0026
same,increase in dead-cell fraction,BSJ-03-123; 0.03162 µM,-0.0037
same,increase in dead-cell fraction,BSJ-03-123; 0.1 µM,0.0091
same,increase in dead-cell fraction,BSJ-03-123; 0.3162 µM,0.0164
same,increase in dead-cell fraction,BSJ-03-123; 1 µM,0.007
same,increase in dead-cell fraction,BSJ-03-123; 3.162 µM,0.0152
same,increase in dead-cell fraction,BSJ-03-123; 10 µM,0.0241
same,increase in dead-cell fraction,Neratinib/HKI272; 0.0003162 µM,0.0008
same,increase in dead-cell fraction,Neratinib/HKI272; 0.001 µM,0.0005
same,increase in dead-cell fraction,Neratinib/HKI272; 0.003162 µM,-0.0005
same,increase in dead-cell fraction,Neratinib/HKI272; 0.01 µM,0.0001
same,increase in dead-cell fraction,Neratinib/HKI272; 0.03162 µM,0.0043
same,increase in dead-cell fraction,Neratinib/HKI272; 0.1 µM,0.0062
same,increase in dead-cell fraction,Neratinib/HKI272; 0.3162 µM,0.0046
same,increase in dead-cell fraction,Neratinib/HKI272; 1 µM,0.0111
same,increase in dead-cell fraction,Neratinib/HKI272; 3.162 µM,0.0132
same,increase in dead-cell fraction,THZ1 [4]; 0.0001 µM,0.0012
same,increase in dead-cell fraction,THZ1 [4]; 0.0003162 µM,0.0126
same,increase in dead-cell fraction,THZ1 [4]; 0.001 µM,0.0025
same,increase in dead-cell fraction,THZ1 [4]; 0.003162 µM,0.0048
same,increase in dead-cell fraction,THZ1 [4]; 0.01 µM,0.0291
same,increase in dead-cell fraction,THZ1 [4]; 0.03162 µM,0.0152
same,increase in dead-cell fraction,THZ1 [4]; 0.1 µM,0.0835
same,increase in dead-cell fraction,THZ1 [4]; 0.3162 µM,0.124
same,increase in dead-cell fraction,THZ1 [4]; 1 µM,0.127
same,increase in dead-cell fraction,[5]; 0.0003162 µM,-0.0072
same,increase in dead-cell fraction,[5]; 0.001 µM,0.0057
same,increase in dead-cell fraction,[5]; 0.003162 µM,-0.0076
same,increase in dead-cell fraction,[5]; 0.01 µM,-0.0059
same,increase in dead-cell fraction,[5]; 0.03162 µM,-0.0018
same,increase in dead-cell fraction,[5]; 0.1 µM,-0.0045
same,increase in dead-cell fraction,[5]; 0.3162 µM,-0.0032
same,increase in dead-cell fraction,[5]; 1 µM,-0.0082
same,increase in dead-cell fraction,[5]; 3.162 µM,0.009
same,GR value,Flavopiridol [6]; 0.0001 µM,0.982 GR
same,GR value,Flavopiridol [6]; 0.0003162 µM,0.93 GR
same,GR value,Flavopiridol [6]; 0.001 µM,0.925 GR
same,GR value,Flavopiridol [6]; 0.003162 µM,0.954 GR
same,GR value,Flavopiridol [6]; 0.01 µM,0.927 GR
same,GR value,Flavopiridol [6]; 0.03162 µM,0.914 GR
same,GR value,Flavopiridol [6]; 0.1 µM,0.559 GR
same,GR value,Flavopiridol [6]; 0.3162 µM,0.0326 GR
same,GR value,Flavopiridol [6]; 1 µM,-0.182 GR
same,GR value,THZ1 [7]; 0.0001 µM,1 GR
same,GR value,THZ1 [7]; 0.0003162 µM,1 GR
same,GR value,THZ1 [7]; 0.001 µM,1.04 GR
same,GR value,THZ1 [7]; 0.003162 µM,0.953 GR
same,GR value,THZ1 [7]; 0.01 µM,0.65 GR
same,GR value,THZ1 [7]; 0.03162 µM,0.283 GR
same,GR value,THZ1 [7]; 0.1 µM,-0.0615 GR
same,GR value,THZ1 [7]; 0.3162 µM,-0.216 GR
same,GR value,THZ1 [7]; 1 µM,-0.297 GR
same,GR value,[8]; 0.0003162 µM,0.988 GR
same,GR value,[8]; 0.001 µM,0.983 GR
same,GR value,[8]; 0.003162 µM,0.933 GR
same,GR value,[8]; 0.01 µM,0.906 GR
same,GR value,[8]; 0.03162 µM,0.848 GR
same,GR value,[8]; 0.1 µM,0.711 GR
same,GR value,[8]; 0.3162 µM,0.563 GR
same,GR value,[8]; 1 µM,0.536 GR
same,GR value,[8]; 3.162 µM,0.392 GR
same,GR value,THZ531; 0.0001 µM,1.03 GR
same,GR value,THZ531; 0.0003162 µM,0.991 GR
same,GR value,THZ531; 0.001 µM,0.943 GR
same,GR value,THZ531; 0.003162 µM,1.01 GR
same,GR value,THZ531; 0.01 µM,1.07 GR
same,GR value,THZ531; 0.03162 µM,1.08 GR
same,GR value,THZ531; 0.1 µM,0.915 GR
same,GR value,THZ531; 0.3162 µM,0.506 GR
same,GR value,THZ531; 1 µM,-0.133 GR
